These molecules were tested against NS3 (Hepatitis C virus) (UniProt A3EZJ3) (assay: Binding affinity against Hepatitis C virus NS3 protease was calculated as Kcat). Details: Hepacivirus hominis.
Chain of NS3 (Hepatitis C virus) (A3EZJ3 as listed by the source): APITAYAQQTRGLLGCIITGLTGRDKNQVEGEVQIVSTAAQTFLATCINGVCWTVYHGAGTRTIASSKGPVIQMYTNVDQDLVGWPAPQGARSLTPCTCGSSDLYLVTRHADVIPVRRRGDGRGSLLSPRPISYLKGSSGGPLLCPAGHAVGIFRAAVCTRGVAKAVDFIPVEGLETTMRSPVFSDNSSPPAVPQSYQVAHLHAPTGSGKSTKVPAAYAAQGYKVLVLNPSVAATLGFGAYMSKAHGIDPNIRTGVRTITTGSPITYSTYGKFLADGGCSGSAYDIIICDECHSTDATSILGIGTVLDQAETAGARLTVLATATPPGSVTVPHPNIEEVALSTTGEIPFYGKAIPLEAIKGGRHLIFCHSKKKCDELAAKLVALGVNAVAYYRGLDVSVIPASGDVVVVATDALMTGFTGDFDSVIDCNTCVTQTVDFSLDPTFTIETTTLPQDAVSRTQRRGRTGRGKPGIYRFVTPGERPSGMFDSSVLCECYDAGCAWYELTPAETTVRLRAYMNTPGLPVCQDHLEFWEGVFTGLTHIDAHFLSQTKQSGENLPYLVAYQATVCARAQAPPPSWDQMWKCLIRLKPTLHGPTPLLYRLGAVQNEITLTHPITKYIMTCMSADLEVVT
`CCCN(NC(=O)[C@H]1CCCN1C(=O)[C@@H](NC(=O)[C@@H](NC(C)=O)C(C)C)C(C)C)C(=O)Oc1ccc([N+](=O)[O-])cc1` was tested, and the k cat was 0.00667 s⁻¹. `CCCN(NC(=O)[C@H]1CCCN1C(=O)[C@@H](NC(=O)[C@@H](NC(=O)[C@H](CC(=O)O)NC(=O)[C@H](CCC(=O)O)NC(=O)[C@@H](NC(C)=O)[C@@H](C)O)C(C)C)C(C)C)C(=O)Oc1ccc([N+](=O)[O-])cc1` was tested, and the k cat was 0.00833 s⁻¹. In the case of `CCCN(NC(=O)[C@H]1CCCN1C(=O)[C@@H](NC(=O)[C@@H](NC(=O)[C@H](CC(=O)O)NC(C)=O)C(C)C)C(C)C)C(=O)Oc1ccc([N+](=O)[O-])cc1`, the k cat is reported as 0.00833 s⁻¹. In the case of `CCCN(NC(=O)[C@H]1CCCN1C(=O)[C@@H](NC(=O)[C@@H](NC(=O)[C@H](CC(=O)O)NC(=O)[C@H](CCC(=O)O)NC(C)=O)C(C)C)C(C)C)C(=O)Oc1ccc([N+](=O)[O-])cc1`, the k cat is reported as 0.00833 s⁻¹. In the case of `CCCC(NC(=O)[C@H]1CCCN1C(=O)[C@@H](NC(=O)[C@@H](NC(=O)[C@H](CC(=O)O)NC(=O)[C@H](CCC(=O)O)NC(=O)[C@@H](NC(=O)[C@H](CC(=O)O)NC(C)=O)[C@@H](C)O)C(C)C)C(C)C)C(=O)Oc1ccc([N+](=O)[O-])cc1` (stereo not given in full), the k cat is reported as 1.67 s⁻¹.
